Assay [1] relates to S. aureus ATCC 25923. The class given is cell-based, Staphylococcus aureus. An excerpt: (§1) To compare the antimicrobial activity among the peptides produced by the method of Example 1, the inventors of the present invention measured the minimal growth inhibitory concentration (MIC), which is minimum concentration of the peptide not allowing any […] of bacterial cells.
(§2) Specifically, the bacterial strains described in the following Table 2 were purchased and cultured to a mid-log phase in MHB (Mueller Hinton Broth) medium. Then, after dilution to bacterial cell concentration of 2×10^5 cells/50 μl, the cells were inoculated to a microtiter plate (NUNC, USA). Thereafter, LL37-1, LL37-2, LL37-3 or LL37-4 peptide which has been synthesized in Example 1 above was subjected to serial dilution, ½ times for each, in a 96-well plate. After adding the peptides in an amount of 50 μl to the cell plate, the cells were cultured for 18 hours at 37° C. By using a microtiter plate reader (Merck Elisa reader, Germany), the absorbance was measured at a wavelength of 600 nm to determine the MIC value of each bacterial strain. As a control group, LL37 as a mother peptide was used and subjected to the same process as above to determine the MIC value of each strain.

The test system of assay [2] is A. baumannii #8. It counts as cell-based, Acinetobacter baumannii.
Text: as §1, §2

The test system of assay [3] is A. baumannii #4. It counts as cell-based, Acinetobacter baumannii.
Text: as §1, §2

For assay [4], the system named is A. baumannii #13. The class given is cell-based, Acinetobacter baumannii.
Text: as §1, §2

Assay [5] has as its system A. baumannii #12. The class given is cell-based, Acinetobacter baumannii.
Text: as §1, §2

For assay [6], the system named is A. baumannii KCTC 2508. It counts as cell-based, Acinetobacter baumannii.
Text: as §1, §2

In assay [7] the test system is A. baumannii #3. It counts as cell-based, Acinetobacter baumannii.
Text: as §1, §2

The test system of assay [8] is A. baumannii #5. It counts as cell-based, Acinetobacter baumannii.
Text: as §1, §2

Assay [9] relates to A. baumannii #9. The class given is cell-based, Acinetobacter baumannii.
Text: as §1, §2

Assay [10] deals with A. baumannii #11. The class given is cell-based, Acinetobacter baumannii.
Text: as §1, §2

Assay [11] deals with A. baumannii #19. It counts as cell-based, Acinetobacter baumannii.
Text: as §1, §2

Assay [12] relates to A. baumannii #10. The class given is cell-based, Acinetobacter baumannii.
Text: as §1, §2

The subject of assay [13] is A. baumannii #2. It counts as cell-based, Acinetobacter baumannii.
Text: as §1, §2

Assay [14] relates to E. coli ATCC 25922. It counts as cell-based, Escherichia coli.
Text: as §1, §2

In assay [15] the test system is Human macrophage cells (U937) infected with Acinetobacter baumannii KCTC 2508. Put plainly: Expression of inflammatory cytokines, Western blot and real time RT-PCR. To be noted: U937 infected with A. baumannii KCTC 2508, peptide added 1 hour after infection, sample after 9 hours. The class given is cell-based. The procedure:
To see whether or not a change in expression of inflammatory cytokines in macrophage is caused by the peptides that are prepared by the method of above Example 1, determination was made by Western blot and real time reverse transcription polymerase chain reaction.
Specifically, Acinetobacter baumannii KCTC 2508 cells were cultured to a mid-log phase in MHB medium, and then diluted to a cell concentration of 1×10^7 cells/ml in physiological saline. Human macrophage cells (U937) were then infected with the resulting cells in time-dependent manner to yield the first sample, and another macrophage cells were infected with Acinetobacter baumannii KCTC 2508 cells, which have been diluted to a concentration of 1×10^7 cells, and added with, 1 hour after the infection, mother peptide LL37 or the homologous peptide to collect the second sample after 9 hours. Both collected samples were treated with cell lysis buffer to obtain the supernatant (sup) and pellet (lysate). Thereafter, by Western blot and real time reverse transcription polymerase chain reaction, a change in the expression level of inflammatory cytokines was examined.

Assay [16] concerns A. baumannii KCTC 2508. As to the kind of experiment: Antibiofilm activity, Crystal violet staining. It counts as cell-based, Acinetobacter baumannii. The note with it: 24 hours. The procedure: (§3) To compare the antimicrobial activity among the peptides produced by the method of Example 1, the inventors of the present invention measured the biofilm inhibitory concentration value of the peptide for not allowing any dissociation of bacterial cells.
(§4) Specifically, among the bacterial strains described in the above Table 2, bacteria showing the most favorable biofilm forming were cultured to a mid-log phase in a medium with suitable composition. Then, after dilution to bacterial cell concentration of 1×10^6 cells/50 μl, the cells were inoculated to a microtiter plate. Thereafter, LL37, LL37-1, LL37-2, LL37-3 or LL37-4 peptide which has been synthesized in Example 1 above was diluted, 1/10 times for each, with 10 mM phosphate buffered physiological saline (PBS) in a 96-well plate. After adding the peptide (50 μl) to each well of the plate, the cells were cultured for 24 hours at 37° C. After removing the supernatant completely, the cells were fixed with 100% methanol for 15 minutes and stained for 1 hour with Crystal violet staining solution followed by rinsing for 3 times. Then, after dissolving in 95% ethanol, the absorbance was measured at a wavelength of 595 nm by using a microtiter plate reader to determine the biofilm minimal inhibitory concentration value of each bacterial strain.

The subject of assay [17] is A. baumannii #5. Put plainly: Antibiofilm activity, Crystal violet staining. It counts as cell-based, Acinetobacter baumannii. The note with it: 24 hours. The procedure:
as §3, §4

Assay [18] deals with A. baumannii #10. As to the kind of experiment: Antibiofilm activity, Crystal violet staining. It counts as cell-based, Acinetobacter baumannii. The note with it: 24 hours. The procedure: as §3, §4
In assay [19] the test system is Acinetobacter baumannii KCTC 2508. As to the kind of experiment: Flow cytometry after PI staining (bacteria membrane). The class given is cell-based. To be noted: peptide at concentration of MIC, 30 minutes at 37° C. The procedure: To determine whether or not the peptides prepared by the method of Example 1 have any effect on bacteria membrane, an analysis was made by flow cytometry.
After that, the supernatant was removed by centrifuge (10,000 rpm) and stained with propidium iodide (PI, concentration of 10 μg/ml) for 30 minutes at 4° C. Thereafter, unbound propidium iodide was removed by centrifuge, and the problem of cell aggregation phenomenon was solved by adding physiological saline (PBS) in an amount of 1 ml.

In brackets after ≈: the same amount, converted by molar mass. Read-outs that look alike come from different tables or passages of the source. Where a SMILES comes first, the peptide text is derived from it.

On to `CC[C@H](C)[C@H](NC(=O)[C@H](CCCNC(=N)N)NC(=O)[C@H](CCC(N)=O)NC(=O)[C@@H](NC(=O)[C@@H](NC(=O)[C@H](CCCNC(=N)N)NC(=O)[C@H](CCCCN)NC(=O)[C@H](Cc1ccccc1)NC(=O)[C@H](CCCCN)NC(=O)[C@@H](N)CCCCN)[C@@H](C)CC)C(C)C)C(=O)N[C@@H](CCCCN)C(=O)N[C@@H](CC(=O)O)C(=O)N[C@@H](Cc1ccccc1)C(=O)N[C@@H](CC(C)C)C(=O)N[C@@H](CCCNC(=N)N)C(=O)N[C@@H](CC(N)=O)C(N)=O` [LL37-2, KKFKRIVQRIKDFLRN-NH2] (H-KKFKRIVQRIKDFLRN-NH2), for which the Minimal inhibitory concentration in [1] (S. aureus ATCC 25923, MHB, 18 hours at 37° C.) came to 2 µM (≈ 4.18 µg/mL); in assay [2] (A. baumannii #8, tolerance to antibiotics), 2 µM (≈ 4.18 µg/mL); in assay [3] (A. baumannii #4, tolerance to antibiotics), 2 µM (≈ 4.18 µg/mL); in [4] (A. baumannii #13, tolerance to antibiotics), 2 µM (≈ 4.18 µg/mL); in assay [5] (A. baumannii #12, tolerance to antibiotics), 2 µM (≈ 4.18 µg/mL); in assay [6] (A. baumannii KCTC 2508, MHB, 18 hours at 37° C.) it was 4 µM (≈ 8.35 µg/mL). For the same compound, the Minimal inhibitory concentration in assay [7] (A. baumannii #3, tolerance to antibiotics) amounted to 2 µM (≈ 4.18 µg/mL); in assay [8] (A. baumannii #5, tolerance to antibiotics), 2 µM (≈ 4.18 µg/mL); in assay [9] (A. baumannii #9, tolerance to antibiotics), 2 µM (≈ 4.18 µg/mL); in assay [10] (A. baumannii #11, tolerance to antibiotics), 2 µM (≈ 4.18 µg/mL); in assay [11] (A. baumannii #19, tolerance to antibiotics), 2 µM (≈ 4.18 µg/mL); in [12] (A. baumannii #10, tolerance to antibiotics), 2 µM (≈ 4.18 µg/mL). Besides, the Minimal inhibitory concentration turned out to be 2 µM (≈ 4.18 µg/mL) in assay [13] (A. baumannii #2, tolerance to antibiotics) and 16 µM (≈ 33.4 µg/mL) in assay [14] (E. coli ATCC 25922, MHB, 18 hours at 37° C.). Further, the “Minimal inhibitory concentration of antimicrobial peptide” value in assay [6] (A. baumannii KCTC 2508, Control (MIC values of Table 3, no added ions)) is 4 µM.

In the case of `CC[C@H](C)[C@H](NC(=O)[C@H](CCCCN)NC(=O)[C@H](CCC(=O)O)NC(=O)[C@H](CCCCN)NC(=O)[C@H](CO)NC(=O)[C@H](CCCCN)NC(=O)[C@H](CCCNC(=N)N)NC(=O)[C@H](Cc1ccccc1)NC(=O)[C@H](Cc1ccccc1)NC(=O)[C@H](CC(=O)O)NC(=O)CNC(=O)[C@H](CC(C)C)NC(=O)[C@@H](N)CC(C)C)C(=O)NCC(=O)N[C@@H](CCCCN)C(=O)N[C@@H](CCC(=O)O)C(=O)N[C@@H](Cc1ccccc1)C(=O)N[C@@H](CCCCN)C(=O)N[C@@H](CCCNC(=N)N)C(=O)N[C@H](C(=O)N[C@H](C(=O)N[C@@H](CCC(N)=O)C(=O)N[C@@H](CCCNC(=N)N)C(=O)N[C@H](C(=O)N[C@@H](CCCCN)C(=O)N[C@@H](CC(=O)O)C(=O)N[C@@H](Cc1ccccc1)C(=O)N[C@@H](CC(C)C)C(=O)N[C@@H](CCCNC(=N)N)C(=O)N[C@@H](CC(N)=O)C(=O)N[C@@H](CC(C)C)C(=O)N[C@H](C(=O)N1CCC[C@H]1C(=O)N[C@@H](CCCNC(=N)N)C(=O)N[C@H](C(=O)N[C@@H](CCC(=O)O)C(=O)N[C@@H](CO)C(N)=O)[C@@H](C)O)C(C)C)[C@@H](C)CC)C(C)C)[C@@H](C)CC` [LL37], the “expression level of HMGB-1 and late cytokine (IL-1b and TNF-α)” value in [15] is given as “has increased more”. The Biofilm forming ability in assay [16] (peptide 2 μM) stood at 42%; in [16] (peptide 4 μM), 39%; in assay [16] (peptide 8 μM), 33%; in [16] (peptide 16 μM) it was 23%; in [16] (peptide 32 μM) it was 10%; in assay [17] (peptide 2 μM), 97%. In addition, the Biofilm forming ability in [17] (peptide 4 μM) is on record as 74%; in assay [17] (peptide 8 μM), 40%; in assay [17] (peptide 16 μM), 36%; in assay [17] (peptide 32 μM) it was 15%; in assay [18] (peptide 2 μM), 62%; in assay [18] (peptide 4 μM), 58%. For the same compound, the figures for the Biofilm forming ability in [18] (peptide 8 μM), in assay [18] (peptide 16 μM) and in assay [18] (peptide 32 μM) were 54%, 53% and 13%, respectively. Moreover, in [19], the “effect on bacteria membrane (PI fluorescence, flow cytometry)” value is reported as “bacteria membrane was damaged”. Further, the Minimal inhibitory concentration in [1] (ATCC 25923, 18 h) turned out to be 16 µM (≈ 71.9 µg/mL); in [2] (#8), 2 µM (≈ 8.98 µg/mL); in [3] (#4) it was 2 µM (≈ 8.98 µg/mL); in assay [4] (#13) it was 2 µM (≈ 8.98 µg/mL); in assay [5] (#12), 2 µM (≈ 8.98 µg/mL); in assay [6] (KCTC 2508, 18 h), 2 µM (≈ 8.98 µg/mL). Further, the Minimal inhibitory concentration in assay [7] (#3), in assay [8] (#5), in assay [9] (#9), in assay [10] (#11), in [11] (#19) and in [12] (#10) was 2 µM (≈ 8.98 µg/mL) throughout. The Minimal inhibitory concentration turned out to be 2 µM (≈ 8.98 µg/mL) in [13] (#2) and 32 µM (≈ 144 µg/mL) in [14] (ATCC 25922, 18 h). Further, in assay [6] (KCTC 2508), the “Minimal inhibitory concentration of antimicrobial peptide” value was 2 µM.

Source of the values: US11452758B2, “Antimicrobial peptide derived from LL37 peptide and uses thereof” (INDUSTRY-ACADEMIC COOPERATION FOUNDATION, CHOSUN UNIVERSITY, priority 2018, dated 2022).
